A short description of this test: growth modulation of Clostridium difficile isolate – OD600, 9-point, retest, dose response (AID 1224920).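 Further: plate controls were DMSO for no effect and levofloxacin control for full effect; inhibitors lower culture turbidity so OD600 falls.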 The settings on record: Clostridium difficile clinical isolate growth, OD600, 24 h.

Calls of active or inactive are those of the source.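 How the source made its calls: active means IC50 no higher than ten times the top tested dose; inconclusive means flat fit with 30 to 70% inhibition, or poor fit; inactive means IC50 above ten times the top dose.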

For `C/C=C/c1ccc([C@@H]2[C@H](CO)N(C(=O)CC)[C@H]2CNC(=O)CC)cc1`, the activity change, negative = inhibition (at 120 µM (top of the series)) is -7.3% (inactive).

On to `N#C[C@H]1[C@@H](c2ccccc2-c2ccccc2)[C@H](CO)N1C(=O)Cc1ccccc1`, for which, for the setting “at 120 µM (top of the series)”, the activity change, negative = inhibition is 32.6% (inactive).

Consider `CC(=O)N(C)C[C@H]1[C@H](c2ccc(-c3ccccc3F)cc2)[C@@H](CO)N1C(C)=O`, for which the activity change, negative = inhibition (at 120 µM (top of the series)) is -11.8% (inactive).

As for `CN1c2ccc(-c3cccc(F)c3)cc2[C@H]2[C@H](CCN2C(=O)C2CCCC2)[C@H]1CO`, the activity change, negative = inhibition (at 120 µM (top of the series)) was 40.6% (inactive).

With `COc1ccc(S(=O)(=O)N2CCCCN3[C@H](CO)[C@@H](c4ccc(C#CC(C)C)cc4)[C@H]3C2)cc1`, the activity change, negative = inhibition (at 120 µM (top of the series)) was 39.3% (inactive).

For `Cc1ccc(-c2ccccc2[C@@H]2[C@@H](C#N)N(C(=O)NC3CCCC3)[C@H]2CO)cc1`, the activity change, negative = inhibition (at 135 µM (top of the series)) was 25% (inactive).

On to `N#C[C@@H]1[C@@H](c2ccccc2-c2ccc(F)cc2)[C@H](CO)N1C(=O)NC1CCCC1`, for which the activity change, negative = inhibition (at 135 µM (top of the series)) is 14% (inactive).

For the compound `O=C(C1CCCC1)N1C[C@@H]2N[C@H](C1)C2c1ccc(-c2cccc(F)c2)cc1` (some centres not stated), the activity change, negative = inhibition (at 60 µM (top of the series)) is 46.7% (inactive).

Turning to `COc1ccc(NC(=O)N2CCCCN3[C@@H](CO)[C@@H](c4ccc(-c5ccccc5C)cc4)[C@@H]3C2)cc1`, where the note is “at 30 µM (top of the series)”, the activity change, negative = inhibition was 48% (inactive).

Take `CC(=O)NC[C@@H]1[C@H](c2ccc(-c3cccc(F)c3)cc2)[C@@H](CO)N1C(C)=O`: the activity change, negative = inhibition (at 120 µM (top of the series)) is -11.6% (inactive).

With `COc1ccc(NC(=O)N2CC[C@@H]3[C@H]2c2cc(Br)ccc2N(C)[C@@H]3CO)cc1`, the activity change, negative = inhibition (at 135 µM (top of the series)) is 17.8% (inactive).

Turning to `CN(C)C(=O)c1cccc(-c2ccc([C@@H]3[C@H]4CN(C(=O)C5CCCCC5)CC(=O)N4[C@H]3CO)cc2)c1`, the activity change, negative = inhibition (at 120 µM (top of the series)) was -5.65% (inactive).

As to `C[C@H](CO)N1C[C@H](C)[C@H](CN(C)C(=O)Nc2ccc3c(c2)OCO3)Oc2c(NC(=O)Nc3ccc(C(F)(F)F)cc3)cccc2C1=O`, where the note is “at 120 µM (top of the series)”, the activity change, negative = inhibition was 49.4% (inactive).

Regarding `COc1ccccc1S(=O)(=O)N1CC[C@@H]2[C@@H](CO)Nc3ccc(-c4ccc(F)cc4)cc3[C@@H]21`, the activity change, negative = inhibition (at 135 µM (top of the series)) was 47% (inactive).

With `O=S(=O)(c1ccc(F)cc1)N1CCCCN2[C@H](CO)[C@H](c3ccc(C#CC4CCCC4)cc3)[C@H]2C1`, the activity change, negative = inhibition (at 120 µM (top of the series)) was -16.2% (inactive).

As to `Cc1ccc(-c2ccc([C@@H]3[C@@H](CO)N4CCCCN(C(=O)Nc5cccc(F)c5)C[C@@H]34)cc2)cc1`, the activity change, negative = inhibition (at 135 µM (top of the series)) is 15.8% (inactive).

In the case of `COc1ccc(NC(=O)N2C[C@@H]3N[C@H](C2)C3c2ccc(-c3cccc(OC)c3)cc2)cc1` (some centres not stated), the activity change, negative = inhibition (at 60 µM (top of the series)) is 28.8% (inactive).

As to `O=C(Cc1ccccc1)N1CC[C@H]2[C@H](CO)Nc3ccc(C4=CCCCC4)cc3[C@H]21`, for the setting “at 135 µM (top of the series)”, the activity change, negative = inhibition is 25.9% (inactive).

Consider `CC(=O)N(C)C[C@H]1[C@H](c2ccc(-c3ccccc3F)cc2)[C@H](CO)N1C(C)=O`, for which, for the setting “at 120 µM (top of the series)”, the activity change, negative = inhibition is -3.85% (inactive).

For `C/C=C/c1ccc([C@H]2[C@@H](CNC(C)C)N(c3nc(CC)cs3)[C@H]2CO)cc1`, the activity change, negative = inhibition (at 135 µM (top of the series)) is 32.5% (inactive).

As for `Cc1cccc(-c2ccc([C@@H]3[C@@H](CO)N4CCCCN(CCC(F)(F)F)C[C@@H]34)cc2)c1`, the activity change, negative = inhibition (at 30 µM (top of the series)) is 25% (inactive).

On to `C/C=C/c1ccc(C2[C@@H]3CN(C(=O)Nc4ccc(F)cc4)C[C@H]2N3)cc1` (some centres not stated), for which the activity change, negative = inhibition (at 68 µM (top of the series)) was 49.5% (inactive).

In the case of `COc1ccc2c3c(n(C)c2c1)[C@H](CO)N(C(=O)c1cccnc1)CC31CCN(C(=O)c2cccnc2)CC1`, the activity change, negative = inhibition (at 120 µM (top of the series)) is 0.941% (inactive).

On to `O=C(Cc1ccccc1)N1CC[C@@H]2[C@H](CO)Nc3ccc(C4=CCCCC4)cc3[C@@H]21`, for which the activity change, negative = inhibition (at 68 µM (top of the series)) is 29.4% (inactive).

Consider `O=C(Nc1ccc(F)cc1)N1[C@@H]2CNC[C@H]1C2c1ccc(-c2ccc(F)cc2)cc1` (some centres not stated), for which the activity change, negative = inhibition (at 60 µM (top of the series)) was 14.2% (inactive).

With `N#Cc1ccc(-c2ccc(C3[C@H]4CNC[C@@H]3N4C(=O)Nc3ccc(Cl)cc3)cc2)cc1` (some centres not stated), the activity change, negative = inhibition (at 135 µM (top of the series)) is 25.9% (inactive).

`C[C@H](CO)N1C[C@H](C)[C@@H](CN(C)S(=O)(=O)c2ccc(Cl)cc2)Oc2c(NS(=O)(=O)c3ccccc3)cccc2C1=O`: under “at 120 µM (top of the series)”, the activity change, negative = inhibition is -3.11% (inactive).

As for `CC(=O)N(C)C[C@@H]1[C@@H](c2ccc(-c3ccccc3F)cc2)[C@H](CO)N1C(C)=O`, the activity change, negative = inhibition (at 120 µM (top of the series)) is -14.3% (inactive).

`CC(=O)N1[C@@H](CO)[C@H](c2ccccc2)[C@@H]1CN(C)C(=O)CN1CCOCC1`: for the setting “at 120 µM (top of the series)”, the activity change, negative = inhibition is -5.04% (inactive).

As for `COc1ccc(NC(=O)N2CC[C@H]3[C@@H]2c2cc(Br)ccc2N(C)[C@H]3CO)cc1`, the activity change, negative = inhibition (at 135 µM (top of the series)) was 4.83% (inactive).

On to `O=S(=O)(c1ccc(F)cc1)N1CCCCN2[C@H](CO)[C@H](c3ccc(-c4ccccc4)cc3)[C@H]2C1`, for which the activity change, negative = inhibition (at 120 µM (top of the series)) is 39.2% (inactive).

Take `CC(=O)N1[C@H](CN(C)C(=O)CN2CCOCC2)[C@@H](c2ccccc2)[C@@H]1CO`: the activity change, negative = inhibition (at 120 µM (top of the series)) was -1.26% (inactive).

The record behind these values is PubChem BioAssay AID1224920 (Broad Institute, 2016).
